Legend:
[1] = pH measurement of oral solutions diluted with water 1:10 and of sodium sulindac solution; type: physicochemical
From the text: The results are shown below.

[2] = Stability, hygroscopicity and crystallization of salts and compositions; type: physicochemical
[3] = background statement; cited from earlier work

CC1=C(CC(=O)O)c2cc(F)ccc2/C1=C\c1ccc([S+](C)[O-])cc1 (stereo not drawn) [sodium sulindac]
pH of aqueous solution ([1]; aqueous solution, 4%): 10.99
hygroscopicity [2]: strongly hygroscopic
crystallization ([2]; in our hands): difficult to crystallize

CC1=C(CC(=O)O)c2cc(F)ccc2/C1=C\c1ccc([S+](C)[O-])cc1 (stereo not drawn) [calcium sulindac]
pH of solutions, in words ([1]; compared with sodium sulindac solutions): acceptable for formulation
stability [2]: good stability

CC1=C(CC(=O)O)c2cc(F)ccc2/C1=C\c1ccc([S+](C)[O-])cc1 (stereo not drawn) [Sulindac]
absorption from the gastrointestinal tract [3]: erratically absorbed
